Source: patent US20100190717A1, “USE OF MELANIN CONCENTRATING HORMONE AND MET-ENKEPHALIN AS THERAPEUTIC AGENTS” (priority 2007, published 2010)
Ends that are not written are not given here.

Key:
HCMV strain AD169 = test: HCMV plaque formation assay in MRC-5 cells; conditions: for inhibition of HCMV plaque formation compared to the virus control: 10 micrograms per ml, 7-10 days
[1] = test system: LPS-induced TNF-alpha production in human macrophages; test: TNF alpha production assay (LPS-stimulated macrophages, ELISA); format: cell-based; conditions: 10 micrograms per ml; LPS 200 ng/ml, overnight
Description: Not stimulated macrophages served as negative background control.

HUVEC = test: Endothelial tube formation assay; format: cell-based, human; conditions: 10 micrograms per ml, 20 hours
Description: Positive control was vehicle only.

[2] = test system: hepatitis B virus (HBV) ayw strain; test: HBV assay in HepG2-2.2.15 cells (TaqMan PCR of secreted HBV DNA); format: cell-based; conditions: 10 micrograms per ml; HepG2-2.2.15, six days
[3] = test system: Interleukin-2 (IL-2) in spleen cells; test: Th1/Th2 cytokine profiling assay: IL-2; format: cell-based, Balb/c mice; conditions: 10 micrograms per ml; Ovalbumin-restimulated spleen cells, 72 hours
Human A549 cells = test: Apoptosis prevention assay (C2 ceramide, Annexin-5); format: cell-based; conditions: 10 micrograms per ml, A549, 30 min pretreatment
Experimental: Human A549 cells (carcinomic human alveolar basal epithelial cells) were utilized in the experiments employing the Annexin-5 apoptosis assay. […] A549 cells were pretreated for 30 min with test peptides—10 micrograms per ml—followed by the exposure to C2 ceramide.

[4] = test system: Human Peripheral Blood Mononuclear Cells (PBMC), B cell proliferation; test: B cell proliferation assay (SAC plus Interleukin-2 stimulated PBMC, 3H-thymidine); format: cell-based; conditions: 10 micrograms per ml
Experimental: Human Peripheral Blood Mononuclear Cells (PBMC) were obtained from normal human donors. The B cell proliferation was induced by stimulation of the cells with the B cell mitogen Staphylococcus aureus Cowans I (SAC) plus Interleukin-2, either in the absence (positive proliferation control), or in the presence of test peptides—10 micrograms per ml—to examine their effects on the B cell response. 10^5/well PBMC were plated in 96-well microtiter plates and assayed in duplicate with the peptides. […] At the end of incubation time, the plates were harvested and the cells counted by liquid scintillation for the incorporation of ^3H-thymidine as a measure of B cell proliferation.

[5] = test system: Interleukin-4 (IL-4) in spleen cells; test: Th1/Th2 cytokine profiling assay: IL-4; format: cell-based, Balb/c mice; conditions: 10 micrograms per ml; Ovalbumin-restimulated spleen cells, 72 hours
[6] = test system: Interleukin-5 (IL-5) in spleen cells; test: Th1/Th2 cytokine profiling assay: IL-5; format: cell-based, Balb/c mice; conditions: 10 micrograms per ml; Ovalbumin-restimulated spleen cells, 72 hours
Description: The Balb/c mice (originated in 1923, it is a popular strain and is used in many different research disciplines. Also classified as an inbred from the production of 20 or more successive brother-sister matings, the Balb/c mouse is albino and small in size) were immunized on Days 1, 15, and 29 with Ovalbumin (Ovalbumin is the main protein found in egg white, commonly used to stimulate an immunological reaction in test animals) in PBS (5 micrograms/injection). On day 50, spleens of the mice were harvested (3 weeks after last boost with Ovalbumin). Cells were cultured (2×10^5/well in triplicate) and incubated with culture medium or test peptides—10 micrograms per ml—for 30 min. Thereafter, additional Ovalbumin was added to the cells at 10 micrograms/ml for in vitro restimulation of the cells. 72 hours later, cell supernatants were harvested and assayed using the Becton Dickinson Mouse Th1/Th2 Cytokine CBA Kit. This kit can be used to measure Interleukin-2 (IL-2), Interleukin-4 (IL-4), Interleukin-5 (IL-5), Interferon-γ (IFN-γ), and Tumor Necrosis Factor-α (TNF-α) protein levels in a single sample. The kit performance has been optimized for analysis of physiologically relevant concentrations (μg/ml levels) of specific cytokine proteins in tissue culture supernatants and serum samples.

[7] = test system: Interferon-γ (IFN-γ) in spleen cells; test: Th1/Th2 cytokine profiling assay: IFN-γ; format: cell-based, Balb/c mice; conditions: 10 micrograms per ml; Ovalbumin-restimulated spleen cells, 72 hours
[8] = test system: Tumor Necrosis Factor-α (TNF-α) in spleen cells; test: Th1/Th2 cytokine profiling assay: TNF-α; format: cell-based, Balb/c mice; conditions: 10 micrograms per ml; Ovalbumin-restimulated spleen cells, 72 hours
[9] = test system: Primary Human endothelial cells (HUVEC); test: Endothelial cell migration assay; format: cell-based; conditions: 10 micrograms per ml, 22 hours
Experimental: Thereafter, designated concentration of testing peptides—10 micrograms per ml—was added in duplicate wells.

| Compound | antiviral activity of positive control compound (HCMV) (HCMV strain AD169; positive control) | inhibition of the LPS-induced TNF-alpha production in human macrophages [1] [%] | inhibition of the tube formation of endothelial cells (HUVEC) [%] | inhibition of HCMV plaque formation compared to the virus control (HCMV strain AD169) | inhibition of HBV replication on tested liver cells [2] | IL-2 spleen cells (% of control) [3] | prevention (reduction) of the ceramide-induced apoptosis on human lung cells (Human A549 cells) | decrease of the proliferation of specifically stimulated human B-cells [4] [%] | IL-4 spleen cells; TH2 response (% of control) [5] | IL-5 spleen cells; TH2 response (% of control) [6] | IFNγ spleen cells; TH1 response (% of control) [7] | TNF-a spleen cells; TH1 response (% of control) [8] | inhibition of the migration of human endothelial cells [9] [%] |
| --- | --- | --- | --- | --- | --- | --- | --- | --- | --- | --- | --- | --- | --- |
| Nc1nc(O)c2ncn(COC(CO)CO)c2n1 [Ganciclovir, reference compound] | expected levels of antiviral activity | – | – | – | – | – | – | – | – | – | – | – | – |
| Tyr-Gly-Gly-Phe-Met-OH [peptide 2] | – | 28.4 | 25 | did not inhibit | no effect | 86.3 % of control | 17.4% | 12.0 | 100.4 % of control | 67.5 % of control | 64.9 % of control | 89.3 % of control | – |
| Asp-Phe-Asp-Met-Leu-Arg-Cys-Met-Leu-Gly-Arg-Val-Tyr-Arg-Pro-Cys-Trp-Gln-Val-OH (DFDMLRCMLGRVYRPCWQV-OH; ends and bridges not checked) [peptide 1, melanin concentrating hormone (MCH), commercially available peptide] | – | 20.6 | 19 | did not inhibit | no effect | 42.3 % of control | did not show any reducing or increasing effect | 20.9 | 85.9 % of control | 78.8 % of control | 90.4 % of control | 92.1 % of control | 39 |
